Experiment [1] deals with T1, Keap1 Kelch domain (321-609) / TAMRA-labeled 16mer NRF2 peptide (ETGE motif) (Homo sapiens, UniProt Q14145).
T1 construct: the Kelch domain (321-609) of Keap1 is used
Nature of the experiment: NRF2-Keap1 FP Assay (Keap1 Kelch fluorescence polarization). It counts as binding. The settings on record: 20 nM Keap1 (321-609), 8 nM Tamra labeled peptide. The method, boiled down: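 Compound dilutions (3-fold) were incubated 1 hr at room temperature with 20 nM Keap1 Kelch (321-609) and 8 nM TAMRA-labeled ETGE 16mer peptide. Buffer was 50 mM Tris pH 8.0, 100 mM NaCl, 5 mM MgCl2, 1 mM DTT, 2 mM CHAPS, 0.005% BSA. Fluorescence polarization (mP) was normalized to controls and fitted with a four-parameter equation to give pIC50.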
In general terms: Fluorescence polarisation rises when a labelled molecule tumbles more slowly, as on binding a larger partner.

The subject of experiment [2] is NQO1 specific enzyme activity in BEAS-2B cells (marker for NRF2 activation). Nature of the experiment: BEAS-2B NQO1 MTT Assay. It counts as cell-based. The following applies: Homo sapiens, compound incubated 48 hours, read-out: EC50 (NQO1 specific enzyme activity induction). In short, it runs like this:
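NQO1 specific activity induction is derived from the rate of MTT reduction (ΔOD/min, 570 nm, 30 min kinetic read) in crude lysates of BEAS-2B cells exposed to compound for 48 h. A 3-parameter fit gives EC50, reported as pEC50; part of each lysate goes to Cell Titer Glo.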

In experiment [3] the target is T2, full length Keap1 protein / full length NRF2 protein (Homo sapiens, UniProt Q14145).
T2 construct: full length NRF2 protein and full length Keap1 protein (Keap1 exists a dimer) are used; His
T2 sequence (Q14145 whole entry): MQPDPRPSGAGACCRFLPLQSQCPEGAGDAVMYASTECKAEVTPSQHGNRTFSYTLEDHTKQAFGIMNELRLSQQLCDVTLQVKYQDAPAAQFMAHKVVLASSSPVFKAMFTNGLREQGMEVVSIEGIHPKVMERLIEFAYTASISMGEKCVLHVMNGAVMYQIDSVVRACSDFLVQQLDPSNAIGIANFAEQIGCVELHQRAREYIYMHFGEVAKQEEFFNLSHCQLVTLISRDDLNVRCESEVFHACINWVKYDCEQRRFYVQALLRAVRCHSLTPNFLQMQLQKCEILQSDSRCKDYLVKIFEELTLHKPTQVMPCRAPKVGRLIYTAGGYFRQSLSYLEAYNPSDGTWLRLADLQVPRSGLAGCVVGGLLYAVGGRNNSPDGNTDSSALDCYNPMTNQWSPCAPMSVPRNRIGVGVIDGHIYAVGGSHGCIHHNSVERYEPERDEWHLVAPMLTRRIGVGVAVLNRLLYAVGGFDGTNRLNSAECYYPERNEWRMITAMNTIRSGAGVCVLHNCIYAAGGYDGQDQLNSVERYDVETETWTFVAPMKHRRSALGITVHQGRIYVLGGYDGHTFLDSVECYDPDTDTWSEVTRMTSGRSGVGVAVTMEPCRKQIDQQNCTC
Nature of the experiment: NRF2-Keap1 TR-FRET Assay. Format: binding. The following applies: 25 nM Keap1-FlagHis and 50 nM biotin-NRF2 added. An excerpt:
In the NRF2-Keap1 TR-FRET (time-resolved fluorescence resonance energy transfer) assay, full length NRF2 protein and full length Keap1 protein (Keap1 exists a dimer) are used. The assay detects the ability of compound to displace the binding of FlagHis-tagged Keap1 with biotinylated, Avi-tagged NRF2 protein. Biotin-NRF2 binds to streptavidin-europium (a component of the detection mix) and Keap1-FlagHis is recognized by anti-Flag APC (allophycocyanin) antibody (also a component of the detection mix). If binding occurs between the two proteins, there will be an energy transfer from the Eu+3 (donor) at 615 nm to the APC (acceptor) at 665 nm. A potential Keap1 inhibitor will cause a reduction in the TR-FRET signal by interfering with the binding of Keap1 to NRF2.
One hundred nanoliters of 100× compound dose response curves (serial 3-fold dilutions) in DMSO are stamped using an Echo liquid handling system (Labcyte) into 384-well, low volume, black assay plates (Greiner, #784076), with DMSO in columns 6 and 18. The top concentration of compound is located in columns 1 and 13. All reagents are diluted in assay buffer (50 mM Tris, pH 8.0, 5 mM MgCl2, 100 mM NaCl, 0.005% BSA, 1 mM DTT, and 2 mM CHAPS). The BSA, DTT, and CHAPS are added to the assay buffer on the day of assay. Using a Multidrop Combi (Thermo Electron Corporation) equipped with a metal tip dispenser, 5 ul of 25 nM Keap1-FlagHis protein is added to all wells of the compound plate, with the exception of the wells in column 18. Wells in column 18 receive 5 ul of assay buffer instead. Plates are centrifuged at 500 rpm for 1 minute, covered with a plate lid, and incubated at 37° C. for 2.25 hours. Plates are then removed from the incubator and allowed to cool to RT for 15 minutes. Five microliters of 50 nM biotin-NRF2 protein is then added to all wells of the plates and the plates are spun at 500 rpm for 1 minute, followed by incubating at 4° C. for 1.25 hours. The plates are then allowed to warm to RT for 15 minutes, followed by the addition of 10 ul of detection mix (1 nM Streptavidin Eu+ W1024 and 5 ug/ml mouse anti-DYKDDDDK IgG conjugated to SureLight APC antibody; both from Columbia Biosciences) to all wells. Plates are spun at 500 rpm for 1 minute, incubated for 1 hour at RT, and read on an Envision plate reader using a 320 nm excitation filter and 615 nm and 665 nm emission filters. Compound response (% inhibition) and potency (pIC50) are calculated based on the ratio of the two emissions (665 nm/615 nm) and then the transformed data is normalized against controls in the assay (control 1=1% DMSO in the presence of NRF2 and Keap1 protein and control 2=1% DMSO in the absence of protein). Data analysis is handled using the software package Abase XE (Surrey, United Kingdom). The % inhibition values are calculated from the ratio (transformed) data by the equation: 100−(100*(compound response−average control 2)/(average control 1−average control2)). For calculation of pIC50s, Abase XE uses a four parameter equation. pIC50 is the negative log of the IC50.
(In general: TR-FRET usually uses a lanthanide donor and a delayed reading to cut background.)

Structures are written as SMILES. Read-outs that look alike come from different tables or passages of the source.

T1 sequence (Q14145 321-609): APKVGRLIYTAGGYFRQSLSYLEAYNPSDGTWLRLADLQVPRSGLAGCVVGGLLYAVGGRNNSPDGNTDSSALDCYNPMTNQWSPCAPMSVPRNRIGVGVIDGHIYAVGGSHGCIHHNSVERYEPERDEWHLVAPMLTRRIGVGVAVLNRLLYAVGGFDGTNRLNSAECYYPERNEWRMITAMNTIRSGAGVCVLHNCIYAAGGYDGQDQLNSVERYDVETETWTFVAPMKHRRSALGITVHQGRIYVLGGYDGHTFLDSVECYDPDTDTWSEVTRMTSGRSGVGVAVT

On to `CN(C)C(=O)c1cccc(-c2cccc(-n3ncc(C(=O)O)c3C3CC(c4ccccc4)C3)c2)c1` (stereo not drawn) [Example 49, 1-{3-[3-(dimethylcarbamoyl)phenyl]phenyl}-5-(3-phenylcyclobutyl)-1H-pyrazole-4-carboxylic Acid], for which the IC50 in experiment [1] is 100 to 1000 nM; in experiment [3], 10000 to 100000 nM. The EC50 in experiment [2] lay in the range of 1000 to 10000 nM.
Turning to `O=C(O)c1cnn(-c2cccc(-c3cccc(C4CCCO4)c3)c2)c1C1CC1` (stereo not drawn) [Example 50, 5-Cyclopropyl-1-[3′-(tetrahydro-furan-2-yl)-biphenyl-3-yl]-1H-pyrazole-4-carboxylic Acid], the IC50 is 1000 to 10000 nM in experiment [1] and above 100000 nM in experiment [3]. Besides, in experiment [2], the EC50 lay within 1000 to 10000 nM.
For `CCCC1CCCCN1C(=O)c1cccc(-c2cccc(-n3ncc(C(=O)O)c3C3CC3c3cccnc3)c2)c1` (stereo not drawn) [Example 52, 1-{3-[3-(2-propylpiperidine-1-carbonyl)phenyl]phenyl}-5-[2-(pyridin-3-yl)cyclopropyl]-1H-pyrazole-4-carboxylic Acid], the IC50 was 100 to 1000 nM in experiment [1] and 1000 to 10000 nM in experiment [3]. Besides, the EC50 in experiment [2] (BEAS-2B, 48 h) fell in the range of 1000 to 10000 nM.
For the molecule `CCCC1CCCCN1C(=O)c1cccc(-c2cccc(-n3ncc(C(=O)O)c3CCc3cn(C)nn3)c2)c1F` (stereo not drawn) [Example 56, 1-(2′-Fluoro-3′-(2-propylpiperidine-1-carbonyl)-[1,1′-biphenyl]-3-yl)-5-(2-(1-methyl-1H-1,2,3-triazol-4-yl)ethyl)-1H-pyrazole-4-carboxylic Acid], the IC50 in experiment [1] was in the range of 10 to 100 nM; in experiment [3] it was 100 to 1000 nM. The EC50 in experiment [2] fell in the range of 1000 to 10000 nM.
Turning to `CCC[C@@H]1CCCCN1C(=O)c1cccc(-c2cccc(-n3ncc(C(=O)O)c3CCc3cn(C)nn3)c2)c1` [Example 58, (R)-5-(2-(1-Methyl-1H-1,2,3-triazol-4-yl)ethyl)-1-(3′-(2-propylpiperidine-1-carbonyl)-[1,1′-biphenyl]-3-yl)-1H-pyrazole-4-carboxylic Acid], the figures for the IC50 in experiment [1] and in experiment [3] were 10 to 100 nM and 100 to 1000 nM, respectively. In addition, the EC50 in experiment [2] (BEAS-2B, 48 h) lay within 1000 to 10000 nM.
For `CC(Oc1cccc(-c2cccc(-n3ncc(C(=O)O)c3C3CC3)c2)c1)C1CCCCC1` (stereo not drawn) [Example 60, 1-(3′-(1-Cyclohexylethoxy)-[1,1′-biphenyl]-3-yl)-5-cyclopropyl-1H-pyrazole-4-carboxylic Acid], the IC50 fell in the range of 1000 to 10000 nM in experiment [1] and 10000 to 100000 nM in experiment [3]. For the same molecule, in experiment [2], the EC50 fell in the range of 1000 to 10000 nM.
For the molecule `CC(C)Oc1cccc(-c2cccc(-n3ncc(C(=O)O)c3C(F)(F)F)n2)c1` [Example 66, 1-(6-(3-Isopropoxyphenyl)pyridin-2-yl)-5-(trifluoromethyl)-1H-pyrazole-4-carboxylic Acid], the values for the IC50 in experiment [1] and in experiment [3] were 1000 to 10000 nM and above 100000 nM, respectively. Also, the EC50 in experiment [2] was in the range of 1000 to 10000 nM.
As to `Cn1cc(CCc2c(C(=O)O)cnn2-c2cccc(-c3cccc(OCC4CCCCC4)c3)c2)nn1` [Example 151, 1-(3-(Cyclohexylmethoxy)-[1,1′-biphenyl]-3-yl)-5-(2-(1-methyl-1H-1,2,3-triazol-4-yl)ethyl)-1H-pyrazole-4-carboxylic acid], the concentration for half-maximal inhibition (IC50) in experiment [1] lay in the range of 1000 to 10000 nM; in experiment [3] it was 10000 to 100000 nM. Also, in experiment [2], the EC50 is 1000 to 10000 nM.
Turning to `Cn1cc(CCCCOc2cccc(-c3cccc(-n4ncc(C(=O)O)c4C4CC4)c3)c2)nn1` [Example 153, 5-Cyclopropyl-1-(3′-(4-(1-methyl-1H-1,2,3-triazol-4-yl)butoxy)-[1,1′-biphenyl]-3-yl)-1H-pyrazole-4-carboxylic Acid], the IC50 in experiment [1] was in the range of 1000 to 10000 nM; in experiment [3], 10000 to 100000 nM. In addition, the EC50 in experiment [2] fell in the range of 1000 to 10000 nM.
Regarding `CCn1cc(C2CC2c2c(C(=O)O)cnn2-c2cccc(-c3cccc(C(=O)N(C)C)c3)c2)nn1` (stereo not drawn) [Example 158, 1-(3′-(dimethylcarbamoyl)-[1,1′-biphenyl]-3-yl)-5-(2-(1-ethyl-1H-1,2,3-triazol-4-yl)cyclopropyl)-1H-pyrazole-4-carboxylic Acid], the IC50 lay within 100 to 1000 nM in experiment [1] and 1000 to 10000 nM in experiment [3]. For the same molecule, in experiment [2], the EC50 lay in the range of 1000 to 10000 nM.
With `CCC[C@@H]1CCCCN1C(=O)c1cccc(-c2cccc(-n3ncc(C(=O)O)c3C3CC3c3cnoc3C)c2)c1` (stereo partly drawn) [Example 159, 5-(2-(5-Methylisoxazol-4-yl)cyclopropyl)-1-(3′-((R)-2-propylpiperidine-1-carbonyl)-[1,1′-biphenyl]-3-yl)-1H-pyrazole-4-carboxylic Acid], the IC50 in experiment [1] and in experiment [3] was 10 to 100 nM throughout. The EC50 in experiment [2] (BEAS-2B, 48 h) is 100 to 1000 nM.
On to `Cn1cc(C2CC2c2c(C(=O)O)cnn2-c2cccc(-c3cccc(OC(C)(C)C)c3)c2)nn1` (stereo not drawn) [Example 166, 1-(3′-(tert-Butoxy)-[1,1′-biphenyl]-3-yl)-5-(2-(1-methyl-1H-1,2,3-triazol-4-yl)cyclopropyl)-1H-pyrazole-4-carboxylic acid], for which the 50% inhibitory concentration (IC50) in experiment [1] fell in the range of 10 to 100 nM; in experiment [3] it was 100 to 1000 nM. For the same molecule, the EC50 in experiment [2] was 100 to 1000 nM.
`COCCC(COc1cccc(-c2cccc(-n3ncc(C(=O)O)c3C3CC3c3cn(C)nn3)c2)c1)C1CCCCC1` (stereo not drawn) [Example 168, 1-(3′-(2-Cyclohexyl-4-methoxybutoxy)-[1,1′-biphenyl]-3-yl)-5-(2-(1-methyl-1H-1,2,3-triazol-4-yl)cyclopropyl)-1H-pyrazole-4-carboxylic acid]: the IC50 was 10 to 100 nM in experiment [1] and 100 to 1000 nM in experiment [3]. Further, the EC50 in experiment [2] is 10 to 100 nM.
In the case of `Cn1cc(C2CC2c2c(C(=O)O)cnn2-c2cccc(-c3cccc(OCC4CCCOC4)c3)c2)nn1` (stereo not drawn) [Example 169, 5-(2-(1-Methyl-1H-1,2,3-triazol-4-yl)cyclopropyl)-1-(3′-((tetrahydro-2H-pyran-3-yl)methoxy)-[1,1′-biphenyl]-3-yl)-1H-pyrazole-4-carboxylic acid], the IC50 in experiment [1] and in experiment [3] was 100 to 1000 nM each time. The concentration for a half-maximal effect (EC50) in experiment [2] is 1000 to 10000 nM.
Turning to `CCCC(COc1cccc(-c2cccc(-n3ncc(C(=O)O)c3C3CC3c3cn(C)nn3)c2)c1)C1CCCCC1` (stereo not drawn) [Example 172, 1-(3′-((2-Cyclohexylpentyl)oxy)-[1,1′-biphenyl]-3-yl)-5-(2-(1-methyl-1H-1,2,3-triazol-4-yl)cyclopropyl)-1H-pyrazole-4-carboxylic acid], the values for the IC50 in experiment [1] and in experiment [3] were 100 to 1000 nM and 1000 to 10000 nM, respectively. Moreover, the EC50 in experiment [2] was 100 to 1000 nM.
As to `CC(COc1cccc(-c2cccc(-n3ncc(C(=O)O)c3C3CC3c3cn(C)nn3)c2)c1)C1CCCCC1` (stereo not drawn) [Example 173, 1-(3′-(2-Cyclohexylpropoxy)-[1,1′-biphenyl]-3-yl)-5-(2-(1-methyl-1H-1,2,3-triazol-4-yl)cyclopropyl)-1H-pyrazole-4-carboxylic acid], the values for the IC50 in experiment [1] and in experiment [3] were 10 to 100 nM and 100 to 1000 nM, respectively. Also, the EC50 in experiment [2] lay within 10 to 100 nM.
For `Cn1cc(C2CC2c2c(C(=O)O)cnn2-c2cccc(-c3cccc(OCC4CCOCC4)c3)c2)nn1` (stereo not drawn) [Example 174, 5-(2-(1-Methyl-1H-1,2,3-triazol-4-yl)cyclopropyl)-1-(3′-((tetrahydro-2H-pyran-4-yl)methoxy)-[1,1′-biphenyl]-3-yl)-1H-pyrazole-4-carboxylic acid], the IC50 in experiment [1] lay in the range of 10 to 100 nM; in experiment [3], 100 to 1000 nM. Further, the EC50 in experiment [2] fell in the range of 1000 to 10000 nM.

A word on the IC50: it is the concentration needed to halve the response being measured. The term EC50 denotes the concentration that produces a half-maximal response.
